Where two headings read alike, the source gives them in different places. Values belong to the compound of their own block, whether it stands above or below them.
How the values were obtained:
[1] = simvastatin 80 mg; cited from earlier work
[2] = assay type: in vivo, human; conditions: atorvastatin 40 mg for five days, CGC/CGC, CGC/TTT
[3] = single 600 mg dose of cyclosporine; cited from earlier work
clinical = conditions: both, human, in vivo, 100 mg; for AUC(0-inf): AUC0-∞; for CL renal: CLR; for half-life: t1/2
[4] = both, human, in vivo, po, 100 mg
[5] = mainly through active tubular secretion; cited from earlier work
[6] = atorvastatin 80 mg; cited from earlier work
[7] = simvastatin 40 mg co-administered; cited from earlier work

SMILES: N#C[C@@H]1CCCN1C(=O)CNC12CC3CC(CC(O)(C3)C1)C2 [vildagliptin]
effect of simvastatin on multiple-dose pharmacokinetics [1]: did not alter

influence of ABCB1 diplotype on pharmacokinetic parameters [2]: not significantly affected
SMILES: CC(C)c1c(C(=O)Nc2ccc(O)cc2)c(-c2ccccc2)c(-c2ccc(F)cc2)n1CC[C@@H](O)C[C@@H](O)CC(=O)O [4-hydroxyatorvastatin]

AUC(0-inf) (clinical): 3220 ng·h/mL | CL renal (clinical): 254 mL/min | Cmax (clinical): 399 ng/mL | half-life (clinical): 7.4 ± 2.5 h | AUC(0-t) (clinical; po, AUC0-24): 3230 ± 1220 ng·h/mL | AUC(0-inf) (clinical; po): 3640 ± 1440 ng·h/mL | CL renal (clinical; po): 254 ± 176 mL/min | Cmax (clinical; po): 454 ± 180 ng/mL | half-life (clinical; po): 7.3 ± 3 h | Cmax [4]: 438 ± 152 ng/mL
SMILES: N[C@@H](CC(=O)N1CCn2c(nnc2C(F)(F)F)C1)Cc1cc(F)c(F)cc1F [Sitagliptin, sitagliptin]
effect of cyclosporine on Cmax [3]: modestly increased | effect of cyclosporine on overall plasma exposure [3]: did not have a significant effect | drug excreted unchanged in the urine [5]: about 80%

influence of ABCB1 diplotype on pharmacokinetic parameters [2]: did not differ significantly
SMILES: CC(C)c1c(C(=O)Nc2ccccc2)c(-c2ccccc2)c(-c2ccc(F)cc2)n1CC[C@@H]1C[C@@H](O)CC(=O)O1 [Atorvastatin lactone, atorvastatin lactone]

influence of ABCB1 diplotype on pharmacokinetic parameters [2]: not significantly affected
SMILES: CC(C)c1c(C(=O)Nc2ccccc2O)c(-c2ccccc2)c(-c2ccc(F)cc2)n1CCC1CC(O)CC(=O)O1 (stereo not drawn) [2-hydroxyatorvastatin lactone]

influence of ABCB1 diplotype on pharmacokinetic parameters [2]: not significantly affected
SMILES: CC(C)c1c(C(=O)Nc2ccccc2O)c(-c2ccccc2)c(-c2ccc(F)cc2)n1CCC(O)CC(O)CC(=O)O (stereo not drawn) [2-hydroxyatorvastatin]

influence of ABCB1 diplotype on pharmacokinetic parameters [2]: not significantly affected
SMILES: CC(C)c1c(C(=O)Nc2ccc(O)cc2)c(-c2ccccc2)c(-c2ccc(F)cc2)n1CCC1CC(O)CC(=O)O1 (stereo not drawn) [4-hydroxyatorvastatin lactone]

SMILES: Cn1c(=O)cc(N2CCC[C@@H](N)C2)n(Cc2ccccc2C#N)c1=O [alogliptin]
effect of atorvastatin on multiple-dose pharmacokinetics [6]: did not alter

SMILES: N#C[C@@H]1C[C@@H]2C[C@@H]2N1C(=O)[C@@H](N)C12CC3CC(CC(O)(C3)C1)C2 [saxagliptin]
increase of AUC by simvastatin [7]: 12%

— article PMC3676426 (European journal of clinical pharmacology, 2013)
